Experiment [1] concerns normal T and B lymphocytes. Nature of the experiment: Immunosuppressive activity: inhibition of normal T/B lymphocyte increment (MTT). Type of experiment: cell-based, rat. The settings on record: FIG. 4. How it is done:
The rats were sacrificed by neck amputation and soaked in 75% ethanol. The spleens of the rats were taken out in an ultra-clean bench, washed in DPBS for 3 times, fully moistened, 200 mesh gauze was placed on a dish (35 mm diameter), it is evenly ground in one direction by a piston of a 10 mL syringe, the spleen was moistened with DPBS while grinding. The collected lymphocyte suspension was centrifuged at 1500 rpm for 3 min, and 7 mL of erythrocyte lysate was added to each spleen suspension. After acting at room temperature for 30 min, the cells were centrifuged at 1500 rpm for 3 min. After discarding supernatant, the cells were washed with DPBS for 3 times to remove excess serum, added with […] of 70% Percoll to the bottom layer of 15 mL centrifuge tube and […] of 40% Percoll to the upper layer of 15 mL centrifuge tube, then centrifuged 800 g at room temperature for 20 min on a horizontal centrifuge.

In experiment [2] the test system is induced T/B lymphocyte. Kind of experiment: Specific inhibition experiment: Con A- or LPS-induced T/B lymphocyte increment (MTT). The following applies: FIG. 5. Type of experiment: cell-based, rat. On the procedure:
The pretreatment of lymphocytes in the specific inhibition experiment is the same as above. After lymphocytes inoculated into 96-well culture plates, drug was added. 200 μL of drug was added each to blank control group (culture medium only), T lymphocyte specific increment inducer Con A model group (5 μg/mL, corresponding model group) and B lymphocyte specific increment inducer LPS model group (5 μg/mL, corresponding model group). Con A administration group was firstly added multiple doses of T lymphocyte specific increment inducer Con A 100 μL ([…], corresponding model group) separately, and then added 100 μL of triptriolide (100, 200, 300, 400 μg/mL) with different concentrations separately. In LPS administration group, multiple doses of B lymphocyte specific increment inducer LPS 100 μL ([…], corresponding model group) were added respectively, and 100 μL of triptriolide (100, 200, 300, 400 μg/mL) with different concentrations were added respectively.

Experiment [3] relates to Raw264.7 cells. Kind of experiment: Anti-inflammatory activity in LPS-induced Raw264.7 cell inflammation model. Type of experiment: cell-based, rat. How it is done:
Raw264.7 37° C., 5% CO2 RPMI-1640+10% FBS+1% Pen Strep. Finally, the cell was cultured in an incubator until 80% of the cells adhere to the wall. The cells in logarithmic growth phase were taken and adjusted to the appropriate cell density in a 96-well plate after digestion with 0.25% trypsin. After adhering to the wall in monolayer, the cell was cultured in a synchronized medium for 12 hours. After entering the quiescent period, except for the blank control group, 1 mL of LPS (1 μg/mL) was used as a modeling agent in other groups to induce the cell inflammation model in the cell in each group. Meanwhile, drug treatment is carried out: 1 mL of culture medium was added to the model group, 1 mL of liquid drug with corresponding concentration was added to the drug administration group (triptolide 50, 100, 150, 200 μg/mL dose group), and 2 ml of culture medium was directly added to the blank control group. Western blot, qPCR, ELISA and other methods were used to detect the expression levels of inflammation-related proteins, genes, cytokines, the expressions of NF-κB transcription-related factors, and the expressions of IL-6, IL-10, TNF-α and other inflammatory cytokines in different treatment groups.

Experiment [4] relates to podocyte cell line MPCS. Nature of the experiment: Protection of podocytes from ADM-induced apoptosis. Type of experiment: cell-based, rat. How it is done:
Rat immortalized podocyte cell line MPCS is presented by nephrology department of Guangdong provincial hospital of Traditional Chinese Medicine. The treatment methods of […] are presented as follows: Western blot, IFC, qPCR, ELISA and other methods are used to detect the expression levels of inflammation-related proteins, genes and cytokines in different treatment groups. The podocyte cell is temperature sensitive cell, increases at 33° C. RPMI-1640+10% FBS+1% Pen Strep+10 U/mL γ-IFN, and differentiates at 37° C. RPMI-1640+10% FBS+1% Pen Strep medium for 10-14 days. […] The expression of podocaine membrane protein podocine and apoptosis-related gene Bax were detected by flow cytometry using FITC-labeled Annexin V and Propidium iodide (PI) to differentiate early apoptotic cells from late apoptotic cells and dead cells.

For experiment [5], the system named is rat with ear swelling model. The settings on record: Zheng Jiarun, et al., 1991; cited from earlier work.

Molecules are shown by their SMILES. “Also recorded” adds a separate entry of the source.

In the case of `CC(C)[C@]1(O)[C@H](O)[C@@H]2O[C@]23[C@]2(O[C@H]2C[C@H]2C4=C(CC[C@@]23C)C(=O)OC4)[C@@H]1O` [triptriolide], the “inhibiting increment of normal T and B lymphocytes in vitro” value in experiment [1] (50, 100, 150, 200 μg/mL, 24 h, MTT) is “dose-dependent”. In addition, the “cell activity of normal T and B lymphocytes” value in experiment [1] (each administration group, p<0.05) is “significantly lower than that of the control group and model group”. Also, the immunosuppressive effect entry in experiment [2] (Con A-induced T vs LPS-induced B lymphocytes) is recorded as “lower immunosuppressive effect; also recorded: on T lymphocytes is significantly higher than that on B lymphocytes”. The “cell activity of Con A- / LPS-induced lymphocytes” value in experiment [2] (different concentrations, 24 h, MTT) is recorded as “higher than that of the blank control group, but lower than that of the model group”. The “effects of inflammatory factors TNF-α and IL-10” value in experiment [3] (FIGS. 7 and 8) is recorded as “effectively reduce”. Moreover, in experiment [3] (LPS 1 μg/mL, FIG. 6), the “cytokine secretion in LPS-induced inflammatory injury model” value is on record as “can improve cytokine secretion”. The “expression of IL-10” value in experiment [3] (at high concentration) is listed as “can be increased”. For the same compound, the apoptosis of podocytes result in experiment [4] (0.8 μg/mL ADM apoptosis model, FIGS. 9 to 11) is “attenuated”. Further, the “apoptosis of podocytes at high concentration” value in experiment [4] (0.8 μg/mL ADM, high concentration) is “upward trend”. In experiment [5], the anti-inflammatory activity entry is reported as “weak anti-inflammatory activity” and the immunosuppressive activity entry was “no immunosuppressive activity”.
